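Cells were grown in 96-well plates and exposed to each compound for 48 hours at five concentrations; endpoints were interpolated linearly between bracketing concentrations, or set to the highest concentration if not reached. TGI marks complete inhibition of growth.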

Test systems include HOP-92 NSCLC; T-47D breast; HOP-62 NSCLC; OVCAR-4 ovarian; A549 NSCLC; KM12 colon; MDA-MB-231 breast; OVCAR-3 ovarian; SK-MEL-28 melanoma; CCRF-CEM leukemia; UACC-257 melanoma; ACHN renal; TK-10 renal; MALME-3M melanoma; SNB-19 CNS; SW-620 colon; IGROV1 ovarian; MDA-MB-435; SF-539 CNS.
Common to all, as to assay: NCI tumour cell line growth inhibition, 48 h

Turning to `CCCCCCCC/C=C\CCCCCCCC(=O)OC[C@]1(CO)CCC(=O)O1`, the TGI with HOP-92 NSCLC, with T-47D breast, with HOP-62 NSCLC, in the assay with OVCAR-4 ovarian, in the assay on A549 NSCLC and with KM12 colon was above 100 µM in each case. Besides, the TGI in the assay on MDA-MB-231 breast, with OVCAR-3 ovarian, in the assay on SK-MEL-28 melanoma, with CCRF-CEM leukemia, in the assay with UACC-257 melanoma and in the assay on ACHN renal was above 100 µM in each case. Moreover, the TGI with TK-10 renal, in the assay with MALME-3M melanoma, in the assay with SNB-19 CNS, in the assay with SW-620 colon, with IGROV1 ovarian and in the assay with MDA-MB-435 was above 100 µM throughout.
For `Cc1nc2c(=O)n(C)c(=O)nc-2n(CCO)c1C`, the TGI in the assay with HOP-92 NSCLC, in the assay on T-47D breast, in the assay on HOP-62 NSCLC, with SF-539 CNS, in the assay on OVCAR-4 ovarian and in the assay on A549 NSCLC was above 100 µM in each case. For the same molecule, the TGI with KM12 colon, with MDA-MB-231 breast, in the assay on OVCAR-3 ovarian, with SK-MEL-28 melanoma, with CCRF-CEM leukemia and with UACC-257 melanoma was above 100 µM each time. Moreover, the TGI in the assay with ACHN renal, in the assay on TK-10 renal, in the assay on MALME-3M melanoma, in the assay with SNB-19 CNS, with SW-620 colon and in the assay on IGROV1 ovarian was above 100 µM in each case. The TGI with MDA-MB-435 was above 100 µM.
With `OC12CC3c4ccccc4NC3C3Oc4cccc5c4C31CCN(CC1CC1)C2C5` (stereo unspecified), the TGI in the assay on HOP-92 NSCLC stood at 24.5 µM; in the assay on T-47D breast it was 42.6 µM; in the assay with HOP-62 NSCLC it was 32.8 µM; in the assay with SF-539 CNS, 90.5 µM; with OVCAR-4 ovarian, 55.5 µM; in the assay with A549 NSCLC, 38.3 µM. For the same molecule, the TGI amounted to 37.3 µM in the assay on KM12 colon; 32.4 µM in the assay with MDA-MB-231 breast; 30.7 µM with OVCAR-3 ovarian; 28.6 µM in the assay with SK-MEL-28 melanoma; 71 µM in the assay with CCRF-CEM leukemia; 32.4 µM in the assay with UACC-257 melanoma. The TGI amounted to 34.5 µM with ACHN renal; 31.1 µM in the assay on TK-10 renal; 34.9 µM with MALME-3M melanoma; 36.8 µM in the assay on SNB-19 CNS; 39.1 µM in the assay with SW-620 colon; 29.8 µM in the assay with IGROV1 ovarian. This molecule had a TGI in the assay with MDA-MB-435 of 32.3 µM.
For `COc1ccc(/C=N/NC(=O)c2ccccc2Nc2ccccc2C(=O)N/N=C/c2ccc(OC)cc2)cc1`, the TGI in the assay with HOP-92 NSCLC, in the assay with T-47D breast, with HOP-62 NSCLC, in the assay on OVCAR-4 ovarian, in the assay on A549 NSCLC and with KM12 colon was above 100 µM each time. In addition, the TGI with MDA-MB-231 breast, with OVCAR-3 ovarian, with SK-MEL-28 melanoma, with CCRF-CEM leukemia, with UACC-257 melanoma and with ACHN renal was above 100 µM in each case. In addition, the TGI in the assay on TK-10 renal, in the assay on MALME-3M melanoma, in the assay on SNB-19 CNS, with SW-620 colon, with IGROV1 ovarian and in the assay on MDA-MB-435 was above 100 µM each time.
With `CCCC(=O)OCC1(CO)C/C(=C/CC(C(C)C)C(C)C)C(=O)O1` (stereo unspecified), the TGI with HOP-92 NSCLC, in the assay on T-47D breast, in the assay with HOP-62 NSCLC, in the assay with OVCAR-4 ovarian, in the assay on A549 NSCLC and in the assay on KM12 colon was above 100 µM each time. For the same molecule, the TGI with MDA-MB-231 breast, with OVCAR-3 ovarian, in the assay with SK-MEL-28 melanoma, in the assay on CCRF-CEM leukemia, with UACC-257 melanoma and in the assay on ACHN renal was above 100 µM each time. Moreover, the TGI in the assay with TK-10 renal, with MALME-3M melanoma, with SNB-19 CNS, with SW-620 colon, in the assay with IGROV1 ovarian and with MDA-MB-435 was above 100 µM throughout.
For `O=C1CCc2nc3ncccc3cc2C1`, the TGI with HOP-92 NSCLC, in the assay on T-47D breast, in the assay on HOP-62 NSCLC, in the assay with OVCAR-4 ovarian, with A549 NSCLC and in the assay with MDA-MB-231 breast was above 100 µM throughout. Besides, the TGI in the assay with OVCAR-3 ovarian was above 100 µM; in the assay on SK-MEL-28 melanoma it was above 100 µM; in the assay on CCRF-CEM leukemia, 72.8 µM; with UACC-257 melanoma it was above 100 µM; in the assay on ACHN renal, above 100 µM; in the assay on TK-10 renal, above 100 µM. Moreover, the TGI in the assay with MALME-3M melanoma is above 100 µM; with SNB-19 CNS it was above 100 µM; in the assay with SW-620 colon it was above 100 µM; with IGROV1 ovarian, above 100 µM; in the assay on MDA-MB-435, 82.3 µM.
Regarding `CCOC(=O)/C(=C\c1ccnc2ccccc12)P(=O)(OCC)OCC`, the TGI in the assay on HOP-92 NSCLC came out at 6.93 µM; in the assay with T-47D breast, 9.11 µM; in the assay on HOP-62 NSCLC, 5.91 µM; in the assay with SF-539 CNS, 3.32 µM; with OVCAR-4 ovarian, 6.61 µM; in the assay on A549 NSCLC, 14.7 µM. For the same molecule, the TGI was determined as 13.9 µM in the assay with KM12 colon; 8.84 µM in the assay with MDA-MB-231 breast; 4.52 µM in the assay with OVCAR-3 ovarian; 3.35 µM in the assay with SK-MEL-28 melanoma; 1.96 µM in the assay on CCRF-CEM leukemia; 14 µM in the assay on UACC-257 melanoma. Further, the TGI was found to be 4.82 µM with ACHN renal; 14 µM in the assay with TK-10 renal; 3.71 µM in the assay on MALME-3M melanoma; 15.3 µM with SNB-19 CNS; 5.27 µM in the assay on SW-620 colon; 4.33 µM with IGROV1 ovarian. The TGI with MDA-MB-435 came out at 9.95 µM.
For the molecule `O=C1N(CN2CCOCC2)CN(CN2CCOCC2)C(=O)N1Cc1ccc(-c2ccc(CN3C(=O)N(CN4CCOCC4)CN(CN4CCOCC4)C3=O)cc2)cc1`, the TGI in the assay on HOP-92 NSCLC was 36.4 µM; in the assay on T-47D breast it was above 100 µM; in the assay with HOP-62 NSCLC, above 57.8 µM; with SF-539 CNS, above 74.3 µM; with OVCAR-4 ovarian, 39.3 µM; in the assay on A549 NSCLC, 57.6 µM. The TGI is 77.3 µM with KM12 colon; above 73.9 µM in the assay with MDA-MB-231 breast; 30 µM with OVCAR-3 ovarian; 36.2 µM with SK-MEL-28 melanoma; 37.9 µM in the assay with UACC-257 melanoma; 99.3 µM in the assay on ACHN renal. Also, the TGI was found to be 43.4 µM with TK-10 renal; 34.6 µM in the assay on MALME-3M melanoma; 31.2 µM in the assay with SNB-19 CNS; 30.7 µM with SW-620 colon; 46.4 µM in the assay on IGROV1 ovarian; 13.6 µM with MDA-MB-435.

Source of the values: PubChem BioAssay (NCI).
